Common to all, as to assay type: biochemical
Test [1] deals with T1, JAK3 (Homo sapiens, UniProt P52333).
T1 sequence (P52333 1-1124): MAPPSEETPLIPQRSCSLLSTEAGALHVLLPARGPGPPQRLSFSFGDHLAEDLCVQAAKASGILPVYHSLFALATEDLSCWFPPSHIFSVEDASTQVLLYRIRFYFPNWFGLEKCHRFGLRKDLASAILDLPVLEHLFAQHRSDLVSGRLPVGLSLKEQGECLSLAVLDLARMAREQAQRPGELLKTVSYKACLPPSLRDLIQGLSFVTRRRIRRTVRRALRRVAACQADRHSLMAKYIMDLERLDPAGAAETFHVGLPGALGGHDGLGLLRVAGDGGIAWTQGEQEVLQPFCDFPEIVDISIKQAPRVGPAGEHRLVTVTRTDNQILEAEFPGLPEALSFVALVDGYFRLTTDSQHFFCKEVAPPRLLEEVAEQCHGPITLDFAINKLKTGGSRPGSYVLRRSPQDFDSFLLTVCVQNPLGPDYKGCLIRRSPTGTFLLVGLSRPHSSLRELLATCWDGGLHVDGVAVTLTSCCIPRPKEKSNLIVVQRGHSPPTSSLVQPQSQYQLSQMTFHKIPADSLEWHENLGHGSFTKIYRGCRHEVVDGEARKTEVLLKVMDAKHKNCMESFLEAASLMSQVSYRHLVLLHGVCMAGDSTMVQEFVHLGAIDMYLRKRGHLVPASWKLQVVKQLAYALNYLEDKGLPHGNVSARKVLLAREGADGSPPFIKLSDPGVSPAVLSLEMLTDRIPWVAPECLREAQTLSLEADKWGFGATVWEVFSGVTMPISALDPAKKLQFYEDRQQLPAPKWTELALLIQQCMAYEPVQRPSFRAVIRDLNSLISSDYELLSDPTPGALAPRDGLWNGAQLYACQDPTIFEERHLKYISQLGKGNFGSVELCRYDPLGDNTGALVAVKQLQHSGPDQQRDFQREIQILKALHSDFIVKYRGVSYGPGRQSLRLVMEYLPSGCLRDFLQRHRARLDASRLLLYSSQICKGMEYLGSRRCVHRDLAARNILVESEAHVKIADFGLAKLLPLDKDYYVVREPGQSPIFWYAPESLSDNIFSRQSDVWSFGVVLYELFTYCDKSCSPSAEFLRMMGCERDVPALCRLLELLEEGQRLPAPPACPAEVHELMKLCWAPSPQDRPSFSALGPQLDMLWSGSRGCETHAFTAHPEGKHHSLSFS
Briefly: JAK3 inhibition assay (standard radioactive enzyme assay). To be noted: average Ki if more than one value determined. As for the experimental part: (§1) Compounds were screened for their ability to inhibit JAK3 using a standard radioactive enzyme assay. 1.5 μL/well of a DMSO stock containing serial dilutions of a compound of the present invention (concentrations ranging from 667 μM to 46 nM) was placed in a 96 well polycarbonate plate. 50 μL per well of kinase buffer (100 mM HEPES (pH 7.4), 10 mM MgCl2, 25 mM NaCl, 1 mM DTT, and 0.01% bovine serum albumin (BSA)) containing 2 μM poly(Glu)4Tyr and 10 μM ATP was also added to the plate. To initiate the reaction, 50 μL kinase buffer containing 2 nM JAK3 enzyme was added. Final ATP concentration was 5 μM [γ-^33P] ATP (200 μCi ^33P ATP/μmol ATP (Perkin Elmer, Cambridge, Mass.). After 20 minutes at room temperature (25° C.), the reaction was stopped by adding 50 μL 20% trichloroacetic acid (TCA)/0.4 mM ATP to each well. The entire content of each well was then transferred to a 96 well glass fiber filter plate using a TomTek Cell Harvester. After washing, 60 μL scintillation fluid was added and ^33P incorporation detected using a Perkin Elmer TopCount. After removing mean background values for all of the data points the data was fit using Prism software to obtain a Ki(app). Inhibition of JAK2 was measured as above except that final poly(Glu)4Tyr concentration was 15 μM and final ATP concentration was 12 μM.

For test [2], the target named is T2, ROCK I (AA 6-553) (Homo sapiens, UniProt Q13464).
T2 construct: ROCK I (AA 6-553)
Kind of test: ROCK inhibition assay, standard coupled enzyme system ("Enzyme"). The note with it: enzyme-linked assay. The gist of the method:
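ROCK I (AA 6-553) at 45 nM and 30 °C with 45 μM ATP and 200 μM peptide, in 100 mM HEPES pH 7.5, 10 mM MgCl2, 25 mM NaCl, 2 mM DTT, 1.5% DMSO. ADP output read by a PK/LDH coupled system: 2.5 mM PEP, 350 μM NADH, 30 μg/ml PK, 10 μg/ml LDH.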

Test [3] concerns the target JAK2 (Homo sapiens, UniProt O60674). Briefly: JAK2 inhibition assay (radioactive enzyme assay, as for JAK3). To be noted: average Ki if more than one value determined. As for the experimental part:
as §1

T2 sequence (Q13464 6-553, species assumed): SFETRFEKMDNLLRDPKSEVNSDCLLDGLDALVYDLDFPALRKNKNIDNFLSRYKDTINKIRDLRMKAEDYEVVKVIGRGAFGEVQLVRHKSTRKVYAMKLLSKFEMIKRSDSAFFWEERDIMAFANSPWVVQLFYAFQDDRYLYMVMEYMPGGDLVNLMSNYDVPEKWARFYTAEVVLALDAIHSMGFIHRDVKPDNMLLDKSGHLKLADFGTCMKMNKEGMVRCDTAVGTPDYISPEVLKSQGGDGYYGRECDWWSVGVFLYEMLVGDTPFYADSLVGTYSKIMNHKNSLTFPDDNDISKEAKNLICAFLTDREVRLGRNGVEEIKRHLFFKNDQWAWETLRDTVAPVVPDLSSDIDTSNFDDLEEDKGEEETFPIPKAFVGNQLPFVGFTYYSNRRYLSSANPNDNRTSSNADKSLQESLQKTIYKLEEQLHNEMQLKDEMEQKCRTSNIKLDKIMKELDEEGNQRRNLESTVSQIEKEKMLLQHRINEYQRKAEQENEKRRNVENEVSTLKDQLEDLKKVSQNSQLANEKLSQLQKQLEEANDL
Sequence of JAK2 (O60674 whole entry, species assumed): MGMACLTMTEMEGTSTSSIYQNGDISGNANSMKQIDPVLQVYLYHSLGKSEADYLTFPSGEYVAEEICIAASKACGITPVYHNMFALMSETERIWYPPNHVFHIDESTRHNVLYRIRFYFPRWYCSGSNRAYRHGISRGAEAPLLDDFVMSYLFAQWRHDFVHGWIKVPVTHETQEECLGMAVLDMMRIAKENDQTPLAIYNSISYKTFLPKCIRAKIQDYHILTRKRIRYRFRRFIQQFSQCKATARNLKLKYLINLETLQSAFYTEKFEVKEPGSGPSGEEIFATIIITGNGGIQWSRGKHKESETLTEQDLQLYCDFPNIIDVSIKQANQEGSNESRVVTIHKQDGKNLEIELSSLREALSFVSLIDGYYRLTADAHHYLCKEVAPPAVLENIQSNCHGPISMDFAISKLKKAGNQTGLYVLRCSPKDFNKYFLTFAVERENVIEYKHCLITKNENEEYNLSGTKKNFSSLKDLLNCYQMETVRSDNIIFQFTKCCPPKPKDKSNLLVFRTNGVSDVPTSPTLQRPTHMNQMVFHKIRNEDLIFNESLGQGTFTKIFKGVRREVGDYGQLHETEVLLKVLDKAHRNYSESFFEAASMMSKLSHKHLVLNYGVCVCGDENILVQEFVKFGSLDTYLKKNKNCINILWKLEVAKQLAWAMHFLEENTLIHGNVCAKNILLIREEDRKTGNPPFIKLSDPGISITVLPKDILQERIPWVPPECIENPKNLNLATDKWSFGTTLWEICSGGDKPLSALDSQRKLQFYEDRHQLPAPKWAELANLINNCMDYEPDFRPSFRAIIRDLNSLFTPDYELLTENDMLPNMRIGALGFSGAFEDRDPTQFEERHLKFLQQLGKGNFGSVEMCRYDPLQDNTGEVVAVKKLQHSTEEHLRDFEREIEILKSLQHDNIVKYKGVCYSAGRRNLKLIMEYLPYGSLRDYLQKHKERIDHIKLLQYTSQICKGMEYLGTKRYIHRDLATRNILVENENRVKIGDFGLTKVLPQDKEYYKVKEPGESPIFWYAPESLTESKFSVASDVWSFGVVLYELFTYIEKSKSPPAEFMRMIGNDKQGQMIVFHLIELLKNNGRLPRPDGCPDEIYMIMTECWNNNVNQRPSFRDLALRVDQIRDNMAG

In general, Ki refers to the dissociation constant of the complex between target and ligand, obtained from inhibition or displacement. Turning to `CCOC(=O)N1CCCN(c2cccc(-c3c[nH]c4ncc(Cl)cc34)n2)CC1` [Compound 84], the results for the Ki in test [1], in test [2] and in test [3] were < 500 nM, 500 to 5000 nM and < 500 nM, respectively.

For the compound `CCCOC(=O)Nc1cnc2[nH]cc(-c3cccc(N4C[C@@H](C)N(C(C)=O)[C@@H](C)C4)n3)c2c1` [Compound 62], the Ki in test [1], in test [2] and in test [3] was < 500 nM throughout.

Turning to `CN(C)c1cccc(-c2c[nH]c3ncc(Cl)cc23)c1` [Compound 144], the Ki in test [1] was < 500 nM; in test [2], 500 to 5000 nM; in test [3], < 500 nM.

With `C[C@@H](Nc1cccc(-c2c[nH]c3ncc(Cl)cc23)n1)C1CCCCC1` [Compound 129], the Ki was < 500 nM in test [1], 500 to 5000 nM in test [2] and 500 to 5000 nM in test [3].

With `CC(C)[C@@H](CO)Nc1cccc(-c2c[nH]c3ncc(Cl)cc23)n1` [Compound 134], the Ki is < 500 nM in test [1], 500 to 5000 nM in test [2] and < 500 nM in test [3].

In the case of `O=C(O)c1ccc(-c2c[nH]c3ncc(Cl)cc23)cc1` [Compound 104], the Ki was < 500 nM in test [1], 500 to 5000 nM in test [2] and < 500 nM in test [3].

For `Clc1cnc2[nH]cc(-c3ccc4ncccc4c3)c2c1` [Compound 200], the Ki was < 500 nM in test [1], 500 to 5000 nM in test [2] and 500 to 5000 nM in test [3].

`CCCOC(=O)Nc1cccc(-c2c[nH]c3ncc(Cl)cc23)n1` [Compound 88]: the values for the Ki in test [1], in test [2] and in test [3] were < 500 nM, 500 to 5000 nM and < 500 nM, respectively.

With `CCOc1cnc2[nH]cc(-c3cccc(N4C[C@@H](C)N(C(C)=O)[C@@H](C)C4)n3)c2c1` [Compound 205], the Ki was < 500 nM in test [1] and 500 to 5000 nM in test [2].

Turning to `CC(=O)N1[C@H](C)CN(c2cccc(-c3c[nH]c4ncc(C(=O)N5CCCCCC5)cc34)n2)C[C@@H]1C` [Compound 55], the Ki in test [1] and in test [3] was 500 to 5000 nM throughout.

As for `COC(=O)N1CCCN(c2cccc(-c3c[nH]c4ncc(Cl)cc34)n2)CC1` [Compound 83], the values for the Ki in test [1], in test [2] and in test [3] were < 500 nM, 500 to 5000 nM and < 500 nM, respectively.

`O=C(O)Cc1cccc(-c2c[nH]c3ncc(Cl)cc23)c1` [Compound 178]: the Ki in test [1], in test [2] and in test [3] was 500 to 5000 nM throughout.

With `CCC(C)C(=O)Nc1cnc2[nH]cc(-c3cccc(N4C[C@@H](C)N(C(C)=O)[C@@H](C)C4)n3)c2c1` (some centres unmarked) [Compound 180], the Ki in test [1] is < 500 nM; in test [2] it was 500 to 5000 nM; in test [3] it was < 500 nM.

Consider `CC(=O)N1[C@H](C)CN(c2cccc(-c3c[nH]c4ncc(OCc5ccccc5)cc34)n2)C[C@@H]1C` [Compound 193], for which the Ki in test [1], in test [2] and in test [3] was < 500 nM in each case.

Turning to `CC(=O)N1[C@H](C)CN(c2cccc(-c3c[nH]c4ncc(NC(=O)CN5CCNCC5)cc34)n2)C[C@@H]1C` [Compound 115], the Ki in test [1] is < 500 nM; in test [2], 500 to 5000 nM; in test [3], < 500 nM.

In the case of `Clc1cnc2[nH]cc(-c3cccc(NC4CCc5ccccc54)n3)c2c1` (centres unmarked) [Compound 133], the Ki in test [1] is < 500 nM; in test [2], 500 to 5000 nM; in test [3], < 500 nM.

As for `CC(=O)N1[C@H](C)CN(c2cccc(-c3c[nH]c4ncc(C(=O)NCCN5CCOCC5)cc34)n2)C[C@@H]1C` [Compound 108], the results for the Ki in test [1], in test [2] and in test [3] were < 500 nM, 500 to 5000 nM and < 500 nM, respectively.

In the case of `Cc1cc(-c2c[nH]c3ncc(Cl)cc23)c2ccccc2n1` [Compound 198], the values for the Ki in test [1], in test [2] and in test [3] were 500 to 5000 nM, 500 to 5000 nM and > 5000 nM, respectively.

Regarding `COc1ccc(OC(=O)Nc2cnc3[nH]cc(-c4cccc(N5C[C@@H](C)N(C(C)=O)[C@@H](C)C5)n4)c3c2)cc1` [Compound 71], the Ki in test [1] is < 500 nM; in test [2], 500 to 5000 nM; in test [3], < 500 nM.

Turning to `FC(F)(F)c1cc(NCc2ccccc2)cc(-c2c[nH]c3ncc(Cl)cc23)c1` [Compound 187], the Ki in test [1] is < 500 nM; in test [3], 500 to 5000 nM.

On to `CC(=O)N1[C@H](C)CN(c2cccc(-c3c[nH]c4ncc(OC(C)C)cc34)n2)C[C@@H]1C` [Compound 206], for which the Ki in test [1] was < 500 nM; in test [2] it was 500 to 5000 nM.

As for `CC(=O)N1[C@H](C)CN(c2cccc(-c3c[nH]c4ncc(NC(=O)OC(C)C)cc34)n2)C[C@@H]1C` [Compound 65], the Ki in test [1] is < 500 nM; in test [2], 500 to 5000 nM; in test [3], < 500 nM.

As to `CC(=O)N1[C@H](C)CN(c2cccc(-c3c[nH]c4ncc(OCCCN5CCOCC5)cc34)n2)C[C@@H]1C` [Compound 208], the Ki in test [1] was < 500 nM; in test [2], 500 to 5000 nM.

For the compound `CCOC(=O)c1cnc2[nH]cc(-c3cccc(N4C[C@@H](C)N(C(C)=O)[C@@H](C)C4)n3)c2c1` [Compound 73], the Ki in test [1], in test [2] and in test [3] was < 500 nM in each case.

Regarding `COC(=O)Nc1cccc(-c2c[nH]c3ncc(Cl)cc23)n1` [Compound 87], the Ki in test [1] was < 500 nM; in test [2], 500 to 5000 nM; in test [3] it was < 500 nM.

Consider `CC(=O)N1[C@H](C)CN(c2cccc(-c3c[nH]c4ncc(NC(=O)OCC(C)(C)C)cc34)n2)C[C@@H]1C` [Compound 64], for which the Ki in test [1] is < 500 nM; in test [2], 500 to 5000 nM; in test [3], < 500 nM.

`O=C(O)c1ccc(-c2c[nH]c3ncc(Cl)cc23)cc1Cl` [Compound 175]: the Ki in test [1] and in test [3] was < 500 nM throughout.

Take `CC(=O)N1[C@H](C)CN(c2cccc(-c3c[nH]c4ncc(NC(=O)c5cccc(Cl)c5)cc34)n2)C[C@@H]1C` [Compound 174]: the Ki in test [1] and in test [3] was < 500 nM in each case.

As for `N#Cc1ccc(-c2c[nH]c3ncc(Cl)cc23)cc1` [Compound 176], the Ki in test [1] and in test [3] was < 500 nM throughout.

Take `O=C(O)c1ccc(-c2c[nH]c3ncc(Cl)cc23)c(F)c1` [Compound 188]: the Ki in test [1] is 500 to 5000 nM; in test [3], > 5000 nM.

For `C=C(C)COc1cnc2[nH]cc(-c3cccc(N4C[C@@H](C)N(C(C)=O)[C@@H](C)C4)n3)c2c1` [Compound 207], the Ki in test [1] was < 500 nM; in test [2] it was 500 to 5000 nM.

Turning to `CC(=O)N1[C@H](C)CN(c2cccc(-c3c[nH]c4ncc(OCCOC(C)C)cc34)n2)C[C@@H]1C` [Compound 209], the figures for the Ki in test [1] and in test [2] were < 500 nM and 500 to 5000 nM, respectively.

For the compound `Cc1cccc(-c2c[nH]c3ncc(Cl)cc23)c1` [Compound 185], the Ki in test [1] was < 500 nM; in test [3] it was 500 to 5000 nM.

With `COc1cnc2[nH]cc(-c3ncc(F)c(N[C@@H](C)C(=O)NCC(F)(F)F)n3)c2c1` [Compound 204], the Ki is < 500 nM in test [1] and 500 to 5000 nM in test [2].
